Read-outs that look alike come from different tables or passages of the source.
Tests used:
in vitro = in vitro ADME, rat
Procedure: For the measurement of the effect of TC on the tight junction of biological membranes, the permeability of 50 μM Lucifer yellow, a marker of paracellular permeation, was measured in the presence of TC (0, 0.1, 1, 10, 100 mM). Prior to the experiment, ileal segments from SD rats (about 20 cm) were placed in the chambers and were submerged in fresh, prewarmed (37 °C) HBSS for 15 min for acclimatization. The chambers were continuously bubbled with carbogen gas (5% CO2/ 95% O2) during the experiment. The experiments began by replacing the HBSS with HBSS containing 50 μM Lucifer yellow and various concentrations of TC on the apical side (A) and adding fresh HBSS to the basal side (B). Aliquots (400 μL) of media were withdrawn from the receiver compartment (B) after 0, 20, 40, 60, and 80 min, and the volume of liquid in the receiver compartment was replenished with fresh, prewarmed HBSS after each sampling. Aliquots (200 μL) of all samples were used for the determination of Lucifer yellow concentration. The fluorescence of Lucifer yellow in the samples was measured using a fluorescence spectrophotometer (Infinite 200 PRO, Tecan, Switzerland) with excitation at 425 nm and emission at 535 nm.
A to B and B to A permeability of Jaspine B was measured in the presence of TC and rat bile. One mL of HBSS containing 50 μM Jaspine B and 10 mM TC or 20% bile was added to the donor side and 1 mL of preheated fresh HBSS was added to the receiver side. Aliquots (400 μL) of media were withdrawn at 0, 20, 40, 60, and 80 min from the receiver compartment as described above. Aliquots (50 μL) of all samples were stored at −80 °C until analysis.
Aliquots (50 μL) of all samples were added to 250 μL of acetonitrile containing 0.5 ng/mL of berberine. After vortexing for 10 min and centrifugation at 13,200 rpm for 5 min, 2 μL of the supernatant was injected directly into the LC-MS/MS system.
The apparent permeability (Papp) of the drug was calculated by dividing the initial drug transport rate (dQ/dt, pmol/min) by the initial drug concentration in the donor compartment of the insert (Co) multiplied by the surface area of the insert (A, cm^2): (3) Papp=dQ/dt×1/ACo

[1] = Pharmacokinetics after intravenous injection (plasma, bile, urine); type: in vivo, rat; conditions: for half-life: iv, 10 mg/kg
Procedure: Male SD rats (aged 8–9 weeks, weighing 250–300 g) were obtained from Samtako Bio Korea, Inc. (Osan, Korea). The rats were acclimatized for 1 week in a temperature-controlled room (23 ± 2 °C) with a 12-h illumination cycle. Food and water were given ad libitum. All animal procedures were approved by the Animal Care and Use Committee of the Kyungpook National University (No. 2015-0064). The rats were fasted for at least 12 h before the oral administration of drugs.
The femoral artery, femoral vein, and bile duct were cannulated with polyethylene tubes (PE-50 and PE-10; Jungdo, Seoul, Korea) under light anesthesia with isoflurane.
For intravenous (IV) dosing, Jaspine B was dissolved in a vehicle containing DMSO: PEG400: saline (2:4:4, v/v/v) and was IV-injected via the femoral vein at 10 mg/kg (vehicle volume, 1 mL/kg). Blood samples were collected from the femoral artery at 0, 0.083, 0.167, 0.25, 0.5, 1, 2, 4, 6, 8, and 12 h following the IV administration of Jaspine B. Bile and urine samples were collected every 2 h for a total of 12 h. After centrifugation of blood samples at 13,200 rpm for 10 min, aliquots of 50 μL of plasma, bile, and urine were stored at −80 °C until the analysis of Jaspine B.
Aliquots (50 μL) of plasma, bile, feces homogenates, and urine samples were added to 250 μL of acetonitrile containing 0.5 ng/mL of berberine (an internal standard). After vortexing for 10 min and centrifugation at 13,200 rpm for 5 min, an aliquot (2 μL) of the supernatant was injected directly into the LC-MS/MS system. For the analysis of plasma concentration, the standard curve range was 25–5000 ng/mL and the concentrations of quality control (QC) samples were 75, 500, and 3000 ng/mL, as described previously. Concentrations of Jaspine B in urine, bile, and feces homogenates were 5–300 ng/mL, 20–5000 ng/mL, and 20–5000 ng/mL, respectively. The concentrations of QC samples were 15, 100, and 300 ng/mL for urine samples and 75, 500, and 3000 ng/mL for bile and feces homogenates.
Pharmacokinetic parameters were determined using a non-compartmental analysis (WinNonlin® 2.0; Pharsight, Mountain View, CA, USA). Maximum plasma concentration (Cmax) and time to reach Cmax (Tmax) values were obtained from plasma concentration-time curves. The area under the plasma concentration–time curve from zero to infinity (AUC) was calculated using the trapezoidal-extrapolation method. For extrapolation, the area from the last data point to infinity was estimated by dividing the […].
Total systemic clearance (CLtotal) was calculated by dividing IV dose by plasma AUC and the apparent volume of distribution at steady-state (Vss) was calculated by multiplying mean residence time (MRT) by CLtotal.

[2] = Metabolic stability in rat liver microsomes; type: in vitro ADME; conditions: for percentage remaining: 37 °C
Procedure: Jaspine B (1 μM) was reconstituted in 100 mM potassium phosphate buffer (pH 7.4) containing 0.25 mg of RLMs and was pre-incubated for 5 min at 37 °C. The reaction was initiated by adding an NADPH-generating system (1.3 mM β-NADP, 3.3 mM glucose-6-phosphate, 3.3 mM MgCl2, and 1.0 unit/mL glucose-6-phosphate dehydrogenase) and then incubated (final volume 100 μL) for 0, 15, 30, and 60 min at 37 °C in a shaking water bath. The reaction was stopped by placing the incubation tubes on ice and adding 200 μL of ice-cold acetonitrile containing 0.5 ng/mL of berberine. After vortexing for 10 min and centrifugation at 13,200 rpm for 5 min, 2 μL of the supernatant was injected directly into the LC-MS/MS system.

[3] = male, Sprague-Dawley, rat plasma, IV 10 mg/kg

For CCCCCCCCCCCCCC[C@@H]1OC[C@H](N)[C@@H]1O [Jaspine B], the permeability change (in vitro) was “increased the permeability”, the Papp at 80 min, 50 μM (in vitro; Sprague-Dawley, rat) was 0.11 ×10⁻⁶ cm/s and the “increase of secretory (B to A) permeability” value (in vitro; Sprague-Dawley, rat, 80 min, 50 μM) was “approximately 5 fold”. For the same molecule, the clearance ([1]; male, Sprague-Dawley, plasma, rat, IV 10 mg/kg, read-out: CLtotal) was 98.3 ± 7.7 mL/min/kg, the Vd ([1]; male, Sprague-Dawley, plasma, rat, IV 10 mg/kg, read-out: Vss) was 21.2 ± 2.6 L/kg and the half-life ([1]; male, Sprague-Dawley, rat, plasma, rat plasma, distribution phase, read-out: distribution half-life (converted)) was 1.4 h. The half-life ([1]; male, Sprague-Dawley, rat, plasma, rat plasma, read-out: T1/2 (terminal half-life) (converted)) was 6.7 ± 1.6 h, the AUC(0-inf) [1, 3] was 1700 ± 137 ng·h/mL and the MRT [1, 3] was 3.6 ± 0.5 h. The AUC(0-t) ([1]; male, Sprague-Dawley, rat plasma, IV 10 mg/kg, read-out: AUC12h) was 1290 ± 166 ng·h/mL, the Xbile ([1]; rat bile, IV 10 mg/kg, 0-12 h) was 2.4 ± 0.8 % of dose and the Xurine ([1]; rat urine, IV 10 mg/kg, 0-12 h) was 0.4 ± 0.2 % of dose. For the same molecule, the CLbile ([1]; rat, IV 10 mg/kg) was 3.1 ± 0.6 mL/min/kg, the CLurine ([1]; rat, IV 10 mg/kg) was 0.5 ± 0.3 mL/min/kg and the “contribution of CLbile and CLurine to CLtotal” value ([1]; rat, IV 10 mg/kg) was “about 4%”. For the same molecule, the percentage remaining ([2]; 1 μM, rat liver microsomes, NADPH-generating system, 30 min) was 59.8%, the percentage remaining ([2]; 1 μM, rat liver microsomes, NADPH-generating system, 60 min) was 20.4% and the degraded ([2]; 1 h incubation with rat liver microsomes) was 80%. It also gave a half-life at 1 μM ([2]; pH 7.4, 1 μM, rat liver microsomes, NADPH-generating system, read-out: degradation half-life (T1/2)) of 0.4 h.
